From patent US20220119840A1, “CLOSED-ENDED DNA (CEDNA) AND USE IN METHODS OF REDUCING GENE OR NUCLEIC ACID THERAPY RELATED IMMUNE RESPONSE” (Generation Bio Co., priority 2019, published 2022)
Entries after “also recorded” stand apart in the source; their conditions may differ. Like-named read-outs stand apart in the source and are kept apart here.

Assays:
[1] = test system: IFN-α, IFN-γ, IL-6, IP-10, IL-18, IL-1β, MCP-1, and TNF-alpha; test: ProcartaPlex multiplex cytokine immunoassay after TTX-9 ceDNA with inflammasome inhibitor pre-treatment; format: in vivo; conditions: C57bL mice, inhibitor i.p. 12-16 h and 1 h before 0.5 mg/kg ceDNA (TTX9-LNP) IV
IRF pathway = test: THP-1 Dual reporter assay, interferon (IRF pathway) induction, Quanti-Luc; format: cell-based; conditions: for concentration giving maximal inhibition of interferon induction: doses 0.625, 1.25, 2.5 μM; for effect on ceDNA-induced interferon induction: inhibitor pretreatment 2 h, 0.625-2.5 μM
human TLR9 = target: T1, human TLR9 (Homo sapiens, UniProt Q9NR96); test: HEK-BLUE.hTLR9 NF-κB/SEAP assay (Quanti-BLUE); format: cell-based; conditions: A151 10 μM, 3 h pretreatment, 300 ng ceDNA
T1 construct: host or cells: HEK-293 (HEK-BLUE.hTLR9 cells)
T1 sequence (Q9NR96 26-1032): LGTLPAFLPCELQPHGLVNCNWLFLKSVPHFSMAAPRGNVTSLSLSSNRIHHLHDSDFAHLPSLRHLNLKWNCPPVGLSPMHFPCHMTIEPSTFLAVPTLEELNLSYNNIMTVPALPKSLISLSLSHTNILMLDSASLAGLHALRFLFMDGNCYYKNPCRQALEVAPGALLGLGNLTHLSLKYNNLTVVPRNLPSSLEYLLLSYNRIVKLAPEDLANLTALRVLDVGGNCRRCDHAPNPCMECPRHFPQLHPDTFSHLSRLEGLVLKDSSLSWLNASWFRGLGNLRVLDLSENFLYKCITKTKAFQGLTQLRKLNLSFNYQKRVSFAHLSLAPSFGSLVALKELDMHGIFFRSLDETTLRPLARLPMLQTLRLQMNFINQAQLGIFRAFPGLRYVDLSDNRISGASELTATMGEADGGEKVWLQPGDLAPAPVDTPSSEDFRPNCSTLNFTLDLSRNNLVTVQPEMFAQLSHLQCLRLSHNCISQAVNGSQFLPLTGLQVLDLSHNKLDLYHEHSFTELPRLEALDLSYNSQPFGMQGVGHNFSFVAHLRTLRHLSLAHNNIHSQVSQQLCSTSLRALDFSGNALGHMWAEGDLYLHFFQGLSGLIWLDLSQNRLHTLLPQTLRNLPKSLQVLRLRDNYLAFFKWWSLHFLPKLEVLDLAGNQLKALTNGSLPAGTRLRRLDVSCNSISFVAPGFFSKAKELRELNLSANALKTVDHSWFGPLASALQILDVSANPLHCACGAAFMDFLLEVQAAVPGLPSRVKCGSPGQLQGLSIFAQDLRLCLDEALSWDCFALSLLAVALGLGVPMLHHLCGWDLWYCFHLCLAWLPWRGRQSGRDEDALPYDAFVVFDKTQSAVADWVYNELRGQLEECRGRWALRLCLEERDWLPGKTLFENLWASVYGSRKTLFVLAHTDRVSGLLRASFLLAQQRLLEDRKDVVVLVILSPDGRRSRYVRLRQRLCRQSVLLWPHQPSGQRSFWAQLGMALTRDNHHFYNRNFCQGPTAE

Factor IX deficient mice = test: Factor IX plasma ELISA, ceDNA encoding Factor IX and A151; format: in vivo

CCO[C@@H]1OC(=O)C[C@@H]1NC(=O)[C@@H]1CCCN1C(=O)[C@@H](NC(=O)c1ccc(N)c(Cl)c1)C(C)(C)C [VX765, (S)-1-((S)-2-{[1-(4-amino-3-chloro-phenyl)-methanoyl]-amino}-3,3-dimethyl-butanoyl)-pyrrolidine-2-carboxylic acid ((2R,3S)-2-ethoxy-5-oxo-tetrahydro-furan-3-yl)-amide]
levels of IL-18 [1]: reduced

A151: oligonucleotide TTAGGGTTAGGGTTAGGGTTAGGG (SEQ ID NO:892)
concentration giving maximal inhibition of interferon induction (IRF pathway): 2.5 µM | effect on ceDNA-induced interferon induction (IRF pathway): similarly reduce this interferon pathway activation; also recorded: dose-dependency of interferon induction inhibition; also recorded: concentration-dependent | ceDNA-stimulated NF-κB induction in presence of inhibitor (human TLR9): reduced the ceDNA-stimulated NF-κB induction to the same degree as methylation of CpG; also recorded: minimal levels of NF-κB induction | cytokine secretion upon re-dose (Factor IX deficient mice; versus ceDNA vector encoding only Factor IX): less activation of cytokine secretion | expression of factor IX (Factor IX deficient mice; versus ceDNA vector expressing only Factor IX): increased and/or sustained expression of factor IX

CO[C@H]1C[C@@H]2CC[C@@H](C)[C@@](O)(O2)C(=O)C(=O)N2CCCC[C@H]2C(=O)O[C@H]([C@H](C)C[C@@H]2CC[C@@H](O)[C@H](OC)C2)CC(=O)[C@H](C)/C=C(\C)[C@@H](O)[C@@H](OC)C(=O)[C@H](C)C[C@H](C)/C=C/C=C/C=C/1C [RAPA, rapamycin]
RAPA solubility in the dispersed nanocarrier phase (PLA and PLA-PEG as nanocarrier polymers): 8.4 % wt/wt | RAPA solubility in the dispersed nanocarrier phase (PLGA and PLA-PEG as nanocarrier polymers): 7.2 % wt/wt

AS1411: TLR9 inhibitory oligonucleotide GGTGGTGGTGGTTGTGGTGGTGGTGG, SEQ ID NO: 903 (chemistry not given here)
concentration giving maximal inhibition of interferon induction (IRF pathway): 2.5 µM | effect on ceDNA-induced interferon induction (IRF pathway): dose-dependency of interferon induction inhibition; also recorded: concentration-dependent

CC(C)(O)c1coc(S(=O)(=O)NC(=O)Nc2c3c(cc4c2CCC4)CCC3)c1 [MCC950]
levels of IFNγ [1]: significant reduction of IFN-γ; also recorded: significantly reduced | levels of IL-18 [1]: significant reduction of IFN-γ; also recorded: significantly reduced | levels of IP-10 [1]: reduction in levels

O=C(NCCCNc1nc(Nc2cccc(NC(=O)N3CCCC3)c2)ncc1I)c1cccs1 [BX795, N-[3-[[5-Iodo-4-[[3-[(2-thienylcarbonyl)amino]propyl]amino]-2-pyrimidinyl]amino]phenyl]-1-pyrrolidinecarboxamide]
effect on ceDNA-induced interferon induction (IRF pathway): similarly reduce this interferon pathway activation; also recorded: abrogation of ceDNA-induced interferon induction
